Experimental data: PubChem BioAssay AID1949 (Southern Research Institute, 2009)
Converted amounts (≈) assume the structure as drawn. Results filed as inconclusive are left out. The source made the active and inactive calls. The rule behind the calls is not given here.

Tested on: M. tuberculosis H37Rv growth inhibition
Experiment: Confirmatory growth inhibition assay against Mycobacterium tuberculosis H37Rv, potency (AID 1949);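 note: bacteria grown 7 days with compound before Alamar blue readout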

SMILES	IC50
O=[N+]([O-])/C=C/c1ccc(-c2ccccc2C(F)(F)F)o1	4.61 µg/mL (≈ 16.3 µM)
CCOc1ccccc1C(=O)Nc1cc(Cl)ccc1O	4.22 µg/mL (≈ 14.5 µM)
O=C(C#Cc1ccccc1)c1ccc([N+](=O)[O-])cc1	> 50 µg/mL (inactive)
CN(C)CCSc1nc(-c2cccs2)cc(-c2ccc(F)cc2)c1C#N	5.23 µg/mL (≈ 13.6 µM)
CC1CCCN(Cc2c(O)ccc3c(=O)c(-c4nc5ccccc5s4)c(N)oc23)C1 (stereo not drawn)	23.6 µg/mL (≈ 55.9 µM)
c1ccc(CCNc2nc3ccccc3[nH]2)cc1	2.94 µg/mL (≈ 12.4 µM)
Cc1ccnc(NC(=O)COc2ccc([N+](=O)[O-])cc2)c1	0.43 µg/mL (≈ 1.5 µM)
CC(C)(C)c1cc(Cl)c(O)c(NC(=S)NC(=O)c2cncc(Br)c2)c1	< 0.1 µg/mL
CCn1nnc(NC(=O)COc2ccc(C3CCCCC3)cc2)n1	2.04 µg/mL (≈ 6.19 µM)
O=C(Nc1nc(SCc2ccc(F)cc2)ns1)c1cc(F)c(F)cc1Cl	2.35 µg/mL (≈ 5.65 µM)
CCOC(=O)c1c(-c2ccc(C)o2)csc1NC(=S)NC(=O)N(C)C	1.85 µg/mL (≈ 4.85 µM)
Cc1ccccc1C(=O)Nc1sc2c(c1C(=O)NCCO)CCC(C(C)(C)C)C2 (stereo not drawn)	> 50 µg/mL (inactive)
COc1ccc(C(=O)NC(=S)Nc2ccc(N3CCCCC3)cc2)cc1OC	1.38 µg/mL (≈ 3.45 µM)
COCCNS(=O)(=O)c1ccc(-c2ccc(C)cc2)cc1	0.49 µg/mL (≈ 1.6 µM)
O=[N+]([O-])/C=C/c1cccn1-c1ccc(F)cc1	7.57 µg/mL (≈ 32.6 µM)
CCC(OC(C)=O)c1ccc(OC(C)=O)c(OC)c1 (stereo not drawn)	1.43 µg/mL (≈ 5.37 µM)
Cc1ccc(S(=O)(=O)NC(=O)Oc2cccc3cccnc23)cc1	3.32 µg/mL (≈ 9.7 µM)
O=C(Nc1ccc(Cl)cc1)Nc1ccc(F)c(F)c1	0.94 µg/mL (≈ 3.33 µM)
O=C(CSc1n[nH]c(-c2ccc(Cl)cc2)n1)Nc1ccc(F)c(Cl)c1	39 µg/mL (≈ 98.2 µM)
CCOC(=O)COc1ccc2c(=O)c(-c3ccc(OC)cc3)c(C)oc2c1	1.29 µg/mL (≈ 3.5 µM)
COC(=O)c1c(NC(=O)c2c(F)c(F)c(F)c(F)c2F)sc2c1CCCCC2	0.36 µg/mL (≈ 0.858 µM)
N#Cc1cccc(NC(=O)Nc2cccc(Cl)c2)c1	6.26 µg/mL (≈ 23 µM)
O=C(Nc1nc2c(Cl)c(Cl)ccc2s1)c1ccco1	4.83 µg/mL (≈ 15.4 µM)
Cc1cccc(C(=O)NC(=S)Nc2ccc([N+](=O)[O-])cc2O)c1	0.19 µg/mL (≈ 0.573 µM)

SMILES	IC50
Cc1ccc(NC(=O)c2ccc(OCC(=O)OC3CCCCC3)cc2)cc1	2.73 µg/mL (≈ 7.43 µM)
Cn1c(NC(=O)c2ccccc2)nc2ccccc21	0.57 µg/mL (≈ 2.27 µM)
CC(C)OC(=O)COc1ccc(-c2ccccc2)cc1	> 50 µg/mL (inactive)
Cn1nnnc1Sc1ccc([N+](=O)[O-])c2ncccc12	> 50 µg/mL (inactive)
O=[N+]([O-])/C=C/c1c[nH]c2ccc(Br)cc12	8.61 µg/mL (≈ 32.2 µM)
Cc1ccc(C(=O)Nc2ccc(C(F)(F)F)cc2)s1	4.67 µg/mL (≈ 16.4 µM)
O=C(Nc1ccc(Cl)cc1)NC1CC2CCC1C2 (stereo not drawn)	0.72 µg/mL (≈ 2.72 µM)
O=C(CC1(O)C(=O)N(CCc2ccccc2)c2ccc(Cl)cc21)c1ccncc1 (stereo not drawn)	6.03 µg/mL (≈ 14.8 µM)
COc1ccc(NC(=O)c2c(NC(=O)c3ccc([N+](=O)[O-])o3)sc3c2CCC3)cc1	0.26 µg/mL (≈ 0.608 µM)
Clc1ccc(OCc2ccccc2Cl)c(CNC2CCCCC2)c1	2.51 µg/mL (≈ 6.89 µM)
O=C(NCCc1c[nH]c2ccccc12)C(Cl)Cl	2.63 µg/mL (≈ 9.7 µM)
O=C(O)c1ccc(NC(CC(=O)c2ccccc2)c2ccc(Br)cc2)cc1 (stereo not drawn)	7.58 µg/mL (≈ 17.9 µM)
COC(=O)CSc1nc(-c2ccccc2)c(-c2ccccc2)o1	5.58 µg/mL (≈ 17.1 µM)
Cc1ccccc1NC(=O)c1ccccc1NC(=S)NC(=O)c1cccnc1	1.3 µg/mL (≈ 3.33 µM)
CCOC(=O)c1c(NC(=S)N2CCN(C(=O)C3CCCO3)CC2)sc(C)c1-c1ccccc1 (stereo not drawn)	6.67 µg/mL (≈ 13.7 µM)
O=C1C(Cl)=C(c2ccc(Cl)cc2)C(=O)N1c1ccc(Cl)cc1	> 50 µg/mL (inactive)
Cc1cccc(OCCn2cnc3cc(C)c(C)cc32)c1	4.52 µg/mL (≈ 16.1 µM)
COC(=O)COc1ccc(NC(=O)c2ccccc2I)cc1	0.62 µg/mL (≈ 1.51 µM)
Clc1ccc(COc2ccc3ccccc3c2CNCc2cccnc2)c(Cl)c1	2.7 µg/mL (≈ 6.38 µM)
CC(C)C1C(c2ccccc2)NC(c2ccccc2)CC1(O)C#Cc1ccccc1 (stereo not drawn)	9.22 µg/mL (≈ 23.3 µM)
CCOC(=O)c1c(NC(=S)NC(C)c2ccncc2)sc2c1CCCCCC2 (stereo not drawn)	32.8 µg/mL (≈ 78.6 µM)
CCCc1nc2ccccc2n1CC(O)COc1ccc(Br)cc1 (stereo not drawn)	4.08 µg/mL (≈ 10.5 µM)
COc1ccc(-c2csc(-c3ccc(OC)c(OC)c3)n2)cc1C	< 0.1 µg/mL
CCc1c(C)sc(NC(=S)NC2CCN(Cc3ccccc3)CC2)c1C(=O)OC	1.69 µg/mL (≈ 3.92 µM)

SMILES	IC50
O=C(Nc1ccc(Cl)c(Cl)c1)c1ccc(Cl)cc1Cl	5.19 µg/mL (≈ 15.5 µM)
COC(=O)CSc1nc(N2CCCCC2)c2c(c1C#N)CCCC2	0.17 µg/mL (≈ 0.492 µM)
COc1ccc2[nH]cc(CCNC(=S)Nc3ccc(Nc4ccccc4)cc3)c2c1	2.9 µg/mL (≈ 6.96 µM)
O=C(NC(Nc1cccc([N+](=O)[O-])c1)C(Cl)(Cl)Cl)c1cccc(I)c1 (stereo not drawn)	11.7 µg/mL (≈ 22.8 µM)
COC(=O)COc1ccc(NC(=O)c2ccccc2F)cc1	0.65 µg/mL (≈ 2.14 µM)
O=C(c1ccc(NC(=O)C2(c3ccccc3)CCCC2)cc1)N1CCCCC1	1.24 µg/mL (≈ 3.29 µM)
C=CCN(CC=C)C(=S)NC(=O)c1ccc(OC)cc1	> 50 µg/mL (inactive)
COC(=O)c1c(C)oc2ccc(OC(=O)c3ccc([N+](=O)[O-])cc3)cc12	> 50 µg/mL (inactive)
O=S1(=O)C=CC2ON=C(c3ccc(Cl)cc3)C21 (stereo not drawn)	1.11 µg/mL (≈ 4.12 µM)
Cc1ccc(Nc2nc(NCc3ccco3)c3ccccc3n2)cc1	1.44 µg/mL (≈ 4.36 µM)
O=C(Oc1c(Cl)cc(Cl)c2cccnc12)c1cc(S(=O)(=O)N2CCCCC2)ccc1Cl	0.48 µg/mL (≈ 0.96 µM)
Cn1c(Sc2ccc([N+](=O)[O-])c3cccnc23)nnc1-c1ccccc1	0.8 µg/mL (≈ 2.2 µM)
CC(C)(C)OC(=O)COc1cc2oc(=O)cc(-c3ccccc3)c2cc1Cl	> 50 µg/mL (inactive)
Cc1cc(Br)c2[nH]c(O)c(N=NC(=O)COc3ccc(C(C)(C)C)cc3C)c2c1	27 µg/mL (≈ 59 µM)
C1=CC2CC1CC2CN1CCC(N(CCc2ccccc2)Cc2ccccc2)CC1 (stereo not drawn)	1.4 µg/mL (≈ 3.49 µM)
Cc1ccc(-c2nn(-c3ccccc3)cc2CNCc2ccccc2)o1	9.25 µg/mL (≈ 26.9 µM)
S=C(NCCc1ccccc1)NCCc1ccc(Cl)cc1	9.95 µg/mL (≈ 31.2 µM)
COc1ccccc1NC(=O)c1cnc(SC)nc1	3.97 µg/mL (≈ 14.4 µM)
CC1CCN(c2nnnc3c2sc2nc(N4CCOCC4)c4c(c23)CCCC4)CC1	> 50 µg/mL (inactive)
COC(=O)CSc1nc2sc3c(c2c(=O)n1Cc1ccccc1)CCC(C(C)(C)C)C3 (stereo not drawn)	> 50 µg/mL (inactive)
CCOC(=O)COc1ccc(S(=O)(=O)Nc2cccc(Cl)c2C)cc1	3.03 µg/mL (≈ 7.89 µM)
CC(=O)N/C(=N/c1nc(C)cc(C)n1)Nc1ccc(C)cc1C	> 50 µg/mL (inactive)
CC(C)C(=O)N1CCN(c2ccccc2NC(=O)c2ccc([N+](=O)[O-])o2)CC1	1.95 µg/mL (≈ 5.05 µM)
CCn1c2ccccc2c2cc(CN3CCC(N4CCN(c5ccccc5)CC4)CC3)ccc21	1.45 µg/mL (≈ 3.2 µM)

SMILES	IC50
Clc1ccc(OCCOCCNCc2ccccc2)c2ccccc12	6.11 µg/mL (≈ 17.2 µM)
O=C(CSc1nnc(-c2cccnc2)o1)c1ccc(Oc2ccccc2)cc1	> 50 µg/mL (inactive)
Fc1ccc(C2=CC(c3ccc(Br)cc3)n3nnnc3N2)cc1 (stereo not drawn)	22.6 µg/mL (≈ 60.7 µM)
CC(=O)OCC#CCSc1nnc(-c2ccc(Br)cc2)o1	< 0.1 µg/mL
c1cc2[nH]onc2c2c3c(nc12)CCCC3	8.28 µg/mL (≈ 38.8 µM)
CC1CCCN(CCC(=O)c2ccc(Br)cc2)C1 (stereo not drawn)	2.8 µg/mL (≈ 9.03 µM)
CCn1c(-c2ccco2)nc2ccccc21	2.39 µg/mL (≈ 11.3 µM)
O=c1c2oc3cccc4c3n(c=2c(=O)c2ccccc12)CCC4	5.4 µg/mL (≈ 17.8 µM)
CCOc1ccc(OCc2ccc(C(=O)Nc3ccc(Cl)cn3)o2)cc1	19.9 µg/mL (≈ 53.5 µM)
COc1ccc(CCCC(=O)Nc2ccc(Cl)c(Cl)c2)c(C)c1	8.81 µg/mL (≈ 25 µM)
O=C1OCCC1Sc1cccc2cccnc12 (stereo not drawn)	7.31 µg/mL (≈ 29.8 µM)
O=C(COc1cccc2ccccc12)c1ccc(Cl)cc1	34 µg/mL (≈ 115 µM)
COc1ccc(CNc2ccccc2O)cc1OC	16.3 µg/mL (≈ 62.7 µM)
CCC(C(=O)O/N=C(\N)Cc1cccc2ccccc12)c1ccccc1 (stereo not drawn)	10.1 µg/mL (≈ 29.2 µM)
O=C(CCCC(=O)N1CCC(Cc2ccccc2)CC1)N1CCC(Cc2ccccc2)CC1	12.1 µg/mL (≈ 27.1 µM)
CC(=O)c1c(C)nc(-c2ccc(Cl)c(Cl)c2)n1O	17.4 µg/mL (≈ 60.9 µM)
O=c1oc(-c2ccccc2)cc(Cl)c1Cl	2.04 µg/mL (≈ 8.46 µM)
COc1ccccc1NC(=O)CSc1nc2cc3ccccc3cc2[nH]1	3.08 µg/mL (≈ 8.47 µM)
COc1cc(SC)ccc1C(=O)NCCOc1ccc(F)cc1	12.1 µg/mL (≈ 36.2 µM)
CC(C(=O)Oc1cccc2cccnc12)N1C(=O)C2C3C=CC(C4CC34)C2C1=O (stereo not drawn)	3.16 µg/mL (≈ 8.14 µM)
Cc1cnc(Nc2cccc(Cl)c2)s1	14.3 µg/mL (≈ 63.7 µM)
C=CCn1c(NCc2cccc3ccccc23)nc2ccccc21	3.16 µg/mL (≈ 10.1 µM)
CN(C)C(=S)Nc1nc2ccccc2s1	< 0.1 µg/mL
COc1ccc(CCNc2nc(N3CCCC3)nc(N3CCCC3)n2)cc1OC	5.35 µg/mL (≈ 13.4 µM)

SMILES	IC50
COc1cc(C(=O)Oc2ccc(Cl)c3cccnc23)cc(OC)c1OC	11.3 µg/mL (≈ 30.2 µM)
COc1ccc(Cc2nn3c(-c4ccccc4)nnc3s2)cc1	0.63 µg/mL (≈ 1.95 µM)
Oc1ccccc1Nc1nc(NCc2ccco2)c2ccccc2n1	5.36 µg/mL (≈ 16.1 µM)
Cc1nc2ccc(C(=O)OCc3cccc(F)c3)cc2nc1C	1.68 µg/mL (≈ 5.41 µM)
COC(=O)Cc1c(C)c2ccc(OCC(=O)OCc3ccccc3)c(C)c2oc1=O	0.11 µg/mL (≈ 0.268 µM)
Cc1cc(NC(=O)CSc2nnnn2-c2ccccc2C)no1	1.41 µg/mL (≈ 4.27 µM)
Cc1nn(-c2ccc([N+](=O)[O-])cc2)c(C)c1N1C(=O)c2cccc3cc(Br)cc(c23)C1=O	0.39 µg/mL (≈ 0.794 µM)
O=C(Cc1ccc(Cl)cc1)Nc1nc2ccc(Cl)cc2s1	3.22 µg/mL (≈ 9.55 µM)
O=[N+]([O-])c1ccc(NC(=S)NCc2ccc(Cl)c(Cl)c2)cc1	1.84 µg/mL (≈ 5.17 µM)
COc1ccc(OC)c(NC(=O)Nc2ccc(Cl)c(C(F)(F)F)c2)c1	1.72 µg/mL (≈ 4.59 µM)
Cn1nc([N+](=O)[O-])nc1Oc1ccc(C(C)(C)C)cc1	< 0.1 µg/mL
CCCOc1ccccc1NC(=O)Nc1ccc(Cl)c(Cl)c1	1.71 µg/mL (≈ 5.04 µM)
Cc1ccc(Cn2c(=N)n(CC(O)c3ccc(Cl)c(Cl)c3)c3ccccc32)cc1 (stereo not drawn)	2.89 µg/mL (≈ 6.78 µM)
CC(=O)Oc1ccc2nc(-c3ccc(C)c(C)c3)oc(=O)c2c1	> 50 µg/mL (inactive)
O=C(Nc1ccc(-c2cc3ccccc3oc2=O)cc1)c1cc(-n2cnnc2)ccc1Cl	6.92 µg/mL (≈ 15.6 µM)
Fc1ccc(-c2nn(-c3ccccc3)cc2CNCc2ccccc2)cc1	5.86 µg/mL (≈ 16.4 µM)
CCc1ccc(Nc2ncnc3ccc(Br)cc23)cc1	4.16 µg/mL (≈ 12.7 µM)
Cc1ccc(-c2cc(C(=O)N3CCCc4ccccc43)no2)cc1	9.33 µg/mL (≈ 29.3 µM)
COc1cc(/C=C/[N+](=O)[O-])cc(Cl)c1OCc1ccccc1C#N	17.9 µg/mL (≈ 51.8 µM)
CC(=O)Oc1cccc2ccc(/C=C/c3cccs3)nc12	1.14 µg/mL (≈ 3.86 µM)
Cc1csc(NC(=O)CSc2ccc(Br)cc2)n1	5.62 µg/mL (≈ 16.4 µM)
COC(=O)c1c(C)oc2ccc(OC(=O)c3cccc([N+](=O)[O-])c3)cc12	3.65 µg/mL (≈ 10.3 µM)
